How the values were obtained:
[1] = biological target: T1, TRKA G667C (Homo sapiens, UniProt P04629, G667C); experiment: In vitro HTRF kinase assay, recombinant TRKA G667C; assay type: biochemical; settings: compared to TRKA G595R
T1 construct: purchased SignalChem Biotech Inc (Richmond, BC, Canada)
Description: Recombinant kinases were purchased from SignalChem Biotech Inc (Richmond, BC, Canada). In vitro kinase assays were performed following the optimization of the HTRF Kinase Assay (Cisbio). […] ATP concentrations ranged from 1 to 10 µM based on internal optimization.

[2] = tested on: IRC LMNA-NTRK1 TRKA G595R; experiment: Proliferation, clonogenic and western blot assays, primary IRC cell line with TRKA G595R; assay type: cell-based; settings: primary human NTRK fusion-positive cell line with TRKA G595R
Source text: NTRK fusion-positive colorectal cancer cell lines IRC, Kor1, and KM12 were utilized. The IRC and the KM12 cell lines were obtained from Dr. Bardelli and cultured according to the described protocols. The Kor1 cell line was obtained from Lee et al. and cultured on laminin pre-treated plates in RPMI media supplemented with 10% Fetal Bovine Serum (FBS). All cell lines were authenticated by STR and periodically screened for the presence of mycoplasma. For the mutant models, two human-derived colorectal cancer cell lines (IRC) and two mouse-derived glioma models (NLS) were used. […] Sequencing of the double mutant cell line was performed using MSK-IMPACT [25]. IRC primary cell lines were cultured with DMEM/F12 50:50 Mix (Corning) supplemented with 10% FBS. NLS Bcan-Ntrk1 Trka G598R and Bcan-Ntrk1 Trka G670C single mutants as well as double mutants NLS Bcan-Ntrk1 Trka G598R/G670A and NLS Bcan-Ntrk1 Trka G598R/G670C isogenic models were established using CRISPR/Cas9 to knock-in TRKA solvent-front and xDFG mutations into tumor cells derived from a Bcan-Ntrk1-driven glioma mouse model. […]
(§1) CellTiter-Glo Cell Viability Assays (Promega) and crystal violet clonogenic assays were performed on primary NTRK fusion-positive colorectal cancer cell lines, mouse Ba/F3 cell lines and isogenic mouse glioma cell lines. […] Absorbance was read at 490 nm in accordance with Promega’s protocol. […]

[3] = tested on: IRC LMNA-NTRK1 TRKA G595R/G667C; experiment: Proliferation, clonogenic and western blot assays, IRC cell line with TRKA G595R/G667C; assay type: cell-based; settings: human NTRK fusion-positive cell line with TRKA G595R/G667C compound mutation
Source text: NTRK fusion-positive colorectal cancer cell lines IRC, Kor1, and KM12 were utilized. The IRC and the KM12 cell lines were obtained from Dr. Bardelli and cultured according to the described protocols. The Kor1 cell line was obtained from Lee et al. and cultured on laminin pre-treated plates in RPMI media supplemented with 10% Fetal Bovine Serum (FBS). All cell lines were authenticated by STR and periodically screened for the presence of mycoplasma. For the mutant models, two human-derived colorectal cancer cell lines (IRC) and two mouse-derived glioma models (NLS) were used. […] Sequencing of the double mutant cell line was performed using MSK-IMPACT [25]. IRC primary cell lines were cultured with DMEM/F12 50:50 Mix (Corning) supplemented with 10% FBS. NLS Bcan-Ntrk1 Trka G598R and Bcan-Ntrk1 Trka G670C single mutants as well as double mutants NLS Bcan-Ntrk1 Trka G598R/G670A and NLS Bcan-Ntrk1 Trka G598R/G670C isogenic models were established using CRISPR/Cas9 to knock-in TRKA solvent-front and xDFG mutations into tumor cells derived from a Bcan-Ntrk1-driven glioma mouse model. Trka G598R is the mouse ortholog to human TRKA G595R while Trka G670A and Trka G670C are the mouse ortholog to human TRKA G667A and TRKA G667C, respectively. Mouse p53 ^−/^− Bcan-Ntrk1 glioma cells were plated on laminin-coated plates and cultured with Neurocult Stem Cell Basal Media with Proliferation Supplements (Stem Cell Technologies). Ba/F3 cell lines stably expressing WT and mutant versions (i.e. G595R, G667C/A, V573M, F589L, F633L, F617L, G623R/E, G639R, G696A/C, G709C, V608D/M) of human TRKA, TRKB or TRKC were generated using either lentiviral transduction or standard transfection methods by a contract research organization (Kyinno, Beijing, China).
as §1

[4] = tested on: Bcan-Ntrk1 Trka G598R orthotopic gliomas; experiment: Intracranial efficacy, orthotopic mouse glioma model; assay type: in vivo, Athymic female mice; settings: selitrectinib 30 mg/kg BID, repotrectinib and zurletrectinib 15 mg/kg BID
Description: (§2) In vivo brain orthotopic experiments were carried out at Memorial Sloan Kettering Cancer Center (MSKCC). Two mouse Bcan-Ntrk1 glioma models were used: single solvent front mutant Trka G598R (clone 1) and double xDFG mutant Trka G598R/G670A (clone 3). For each model, five arms were used with six mice per arm, totaling 60 mice. Athymic female mice (6–8 weeks old) were anesthetized with ketamine/xylazine and administered a preoperative dose of buprenorphine prior to stereotactic intracranial injection. Each mouse was injected with 200,000 cells in a volume of 2 uL 3 mm deep, 1 mm to the right of the sagittal suture (midline), and 1 mm posterior to the coronal suture behind the bregma with the aim being to target the right lateral ventricle. One week post cell implantation, the mice were randomized into different treatment groups and treatments began. […] Mouse weights were monitored twice a week and survival was recorded and graphed on GraphPad Prism 9 [31, 32].
(§3) Statistical analyses were conducted using GraphPad Prism 9 (GraphPad Software Inc.). For CellTiter-Glo assays, raw data obtained were normalized to the DMSO control utilizing Microsoft Excel. GraphPad Prism 9 was used to determine the 50% growth inhibition concentration (IC50) using non-linear regression and curve fitting. Data is presented as the mean ± standard deviation (STDEV) of all replicates. Measurements were assessed for normal distribution and homogeneity of variance using appropriate tests and were analyzed using analysis of variance or T-Tests, and nonparametric tests were used for non-normal distributed data. Animal studies utilized five arms with six or eight mice per arm. A Kaplan–Meier test was used to assess lifespan characteristics and for comparison between groups. Median survivals were obtained using GraphPad Prism 9. Sample size was based on statistical power analysis to ensure sufficient capability to detect a pre-specified effect size. We assumed a moderate effect size, with an alpha level set at 0.05, and a power (1-β) set at 0.80. P values were calculated using a Log-rank or Mantel–Cox test using GraphPad Prism 9. A P value < 0.05 was considered statistically significant.

[5] = tested on: Bcan-Ntrk1 Trka G598R/G670A orthotopic gliomas; experiment: as above; assay type: in vivo, Athymic female mice; settings: selitrectinib 30 mg/kg BID, repotrectinib and zurletrectinib 15 mg/kg BID
Description: as §2, §3

T1 sequence (P04629 33-796 G667C): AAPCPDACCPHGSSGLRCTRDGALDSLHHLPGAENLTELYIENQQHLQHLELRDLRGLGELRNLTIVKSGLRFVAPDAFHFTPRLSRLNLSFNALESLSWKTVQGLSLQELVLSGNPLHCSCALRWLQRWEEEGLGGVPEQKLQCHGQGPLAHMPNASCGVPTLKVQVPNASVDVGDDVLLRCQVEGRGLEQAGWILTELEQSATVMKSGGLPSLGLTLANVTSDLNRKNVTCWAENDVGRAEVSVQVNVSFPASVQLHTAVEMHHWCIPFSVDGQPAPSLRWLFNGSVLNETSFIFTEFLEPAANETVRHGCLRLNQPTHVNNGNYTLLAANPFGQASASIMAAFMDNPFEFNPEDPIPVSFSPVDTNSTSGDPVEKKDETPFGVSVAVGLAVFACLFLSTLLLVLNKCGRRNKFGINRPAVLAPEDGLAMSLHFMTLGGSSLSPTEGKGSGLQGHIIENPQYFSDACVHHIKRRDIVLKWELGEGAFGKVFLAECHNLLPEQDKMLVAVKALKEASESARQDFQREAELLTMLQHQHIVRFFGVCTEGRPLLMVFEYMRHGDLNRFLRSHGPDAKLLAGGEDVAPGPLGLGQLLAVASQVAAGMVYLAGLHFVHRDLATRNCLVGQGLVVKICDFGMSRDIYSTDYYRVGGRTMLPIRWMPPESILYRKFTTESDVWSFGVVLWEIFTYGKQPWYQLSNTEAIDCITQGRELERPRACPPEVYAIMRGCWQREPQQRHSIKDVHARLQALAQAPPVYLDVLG

**Q.** Which “Potency against TRKA G667C xDFG mutant recombinant kinase” value [1] does the source give for C[C@@H]1CCc2ncc(F)cc2[C@H]2CCCN2c2ccn3ncc(c3n2)C(=O)N1 [Selitrectinib, selitrectinib] here?
**A.** potency was significantly reduced

**Q.** And the “Inhibition of growth and TRKA-mediated signaling” value [2]?
**A.** able to inhibit the growth and TRKA-mediated signaling

**Q.** What about the “Inhibition of growth and TRKA-mediated signaling” value [3] of the same compound?
**A.** not with the TRKA G595R/G667C compound mutation

**Q.** And the “Survival of mice, comparison between next-generation agents” value [4]?
**A.** no significant difference in the survival

**Q.** What about the Median survival [5] of the same compound?
**A.** 41.5 days

**Q.** What does the source list for zurletrectinib?
**A.** Potency against TRKA G667C xDFG mutant recombinant kinase [1]: potency was significantly reduced; Inhibition of growth and TRKA-mediated signaling [2]: able to inhibit the growth and TRKA-mediated signaling; Inhibition of growth and TRKA-mediated signaling [3]: not with the TRKA G595R/G667C compound mutation; Survival of mice, comparison between next-generation agents [4]: no significant difference in the survival; Median survival [5]: 104 days

Source: publication PMC11300601, “Zurletrectinib is a next-generation TRK inhibitor with strong intracranial activity against NTRK fusion-positive tumours with on-target resistance to first-generation agents” (British Journal of Cancer, 2024)
